# What was measured:
# [1] = molecular target: T1, Aldo-keto reductase family 1 member B1 (Rattus norvegicus, UniProt P07943); test: Inhibition of ALR2 in Wistar rat eye lens assessed as reduction in NADPH consumption preincubated for 1 min followed by D,L-glyceraldehyde addition measured after 4 mins by spectrophotometric analysis
# [2] = molecular target: Aldo-keto reductase family 1 member A1 (Rattus norvegicus, UniProt P51635); test: Inhibition of ALR1 in Wistar rat kidney assessed as reduction in NADPH consumption preincubated for 1 min followed by substrate addition measured after 4 mins by spectrophotometric analysis
# Aldo-keto reductase family 1 member A1, sequence (P51635 whole entry, looked up): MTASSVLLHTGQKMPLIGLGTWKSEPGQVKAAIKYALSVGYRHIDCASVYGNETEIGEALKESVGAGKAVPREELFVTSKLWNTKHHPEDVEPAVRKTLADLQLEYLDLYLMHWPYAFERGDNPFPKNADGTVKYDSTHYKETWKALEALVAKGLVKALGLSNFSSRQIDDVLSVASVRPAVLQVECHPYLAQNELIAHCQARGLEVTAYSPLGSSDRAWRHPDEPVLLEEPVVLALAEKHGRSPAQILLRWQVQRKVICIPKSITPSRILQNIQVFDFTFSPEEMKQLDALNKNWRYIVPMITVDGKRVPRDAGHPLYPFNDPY
# [3] = molecular target: Aldo-keto reductase family 1 member B10 (Homo sapiens, UniProt O60218); test: Inhibition of recombinant human AKR1B10
# Aldo-keto reductase family 1 member B10, sequence (O60218 whole entry): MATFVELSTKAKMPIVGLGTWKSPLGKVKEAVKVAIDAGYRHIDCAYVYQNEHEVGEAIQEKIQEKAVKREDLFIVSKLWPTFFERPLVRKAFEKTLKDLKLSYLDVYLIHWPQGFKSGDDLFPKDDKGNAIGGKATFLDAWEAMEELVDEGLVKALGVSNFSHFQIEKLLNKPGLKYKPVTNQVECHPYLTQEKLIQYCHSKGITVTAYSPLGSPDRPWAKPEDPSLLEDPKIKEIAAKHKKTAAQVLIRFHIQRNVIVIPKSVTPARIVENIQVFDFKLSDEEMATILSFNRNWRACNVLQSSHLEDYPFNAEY
# [4] = molecular target: T2, Aldo-keto reductase family 1 member B1 (Homo sapiens, UniProt P15121); test: Inhibition of recombinant human AKR1B1 using D,L-glyceraldehyde as substrate
# [5] = molecular target: T1, Aldo-keto reductase family 1 member B1; test: Uncompetitive inhibition of ALR2 in Wistar rat eye lens assessed as reduction in NADPH consumption preincubated for 1 min followed by D,L-glyceraldehyde addition measured after 4 mins by spectrophotometric analysis
# [6] = molecular target: T2, Aldo-keto reductase family 1 member B1; test: Uncompetitive inhibition of recombinant human AKR1B1 using D,L-glyceraldehyde as substrate
IC50 [1] [nM],IC50 [2] [nM],IC50 [3] [nM],IC50 [4] [nM],Ki [5] [nM],Ki [6] [nM],SMILES
34200,> 100000,,,,,CC(C)N1CCc2c(c3ccccc3n2CC(=O)O)C1
57.5,7540,,,,,O=C(O)Cn1c2c(c3ccccc31)CN(C(=O)C1CC1)CC2
20.5,21900,,,,,CC(=O)N1CCc2c(c3ccccc3n2CC(=O)O)C1

# Second part, the compound before the results:
SMILES,IC50 [1] [nM],IC50 [2] [nM],IC50 [3] [nM],IC50 [4] [nM],Ki [5] [nM],Ki [6] [nM]
CC(=O)c1c(C)n(CC(=O)O)c2ccccc12,169,11200,,,,
CCOC(=O)N1CCc2c(c3cc(C(=O)O)ccc3n2CC(=O)O)C1,12.7,4840,,,,
Cc1c(C=O)c2ccccc2n1CC(=O)O,340,11800,,,,
CCOC(=O)N1CCc2c(c3cc(OC)ccc3n2CC(=O)O)C1,12.6,9980,9430,83.5,16.9,66.1

# — ChEMBL document CHEMBL4177632 (Bioorg Med Chem, 2017)
